The values that follow come from US20120121656A1, “METHODS AND COMPOSITIONS FOR PROTECTING AGAINST NEUROTOXICITY OF A NEUROTOXIC AGENT, AND IMPROVING MOTOR COORDINATION ASSOCIATED WITH A NEURODEGENERATIVE CONDITION OR DISEASE” (Revalesio Corporation, priority 2010, published 2012).

A short description of assay [1]: Body weight of rats in the MBP EAE model. Format: in vivo, Lewis rats. The settings on record: Group 2F, 1 mg/kg IP once daily from study day 0. The source says:
Body Weights. Body weight loss can be the first sign of disease initiation, while a sudden marked weight gain tends to accompany remission of EAE symptoms. Therefore, determination of individual body weights of animals was made shortly before EAE induction on study day 0 (study commencement) and thereafter on a daily basis throughout the entire 21-day observation period.
This working EXAMPLE discloses the weight change of rats subjected to the experiment described in Example 7. Body weight loss can be the first sign of disease initiation, while a sudden marked weight gain tends to accompany remission of EAE symptoms. Therefore, determination of individual body weights of animals was made shortly before EAE induction on study day 0 (study commencement) and on a daily basis throughout the 21-day observation period.

Another assay has as its system primary progressive MS. Conditions: 943 patients with primary progressive MS (Wolinsky et al. 2007); cited from earlier work.
For another assay, the target named is MMP-9 (Homo sapiens, UniProt P14780). Conditions: cited from earlier work.
MMP-9, sequence (P14780 94-707, species assumed): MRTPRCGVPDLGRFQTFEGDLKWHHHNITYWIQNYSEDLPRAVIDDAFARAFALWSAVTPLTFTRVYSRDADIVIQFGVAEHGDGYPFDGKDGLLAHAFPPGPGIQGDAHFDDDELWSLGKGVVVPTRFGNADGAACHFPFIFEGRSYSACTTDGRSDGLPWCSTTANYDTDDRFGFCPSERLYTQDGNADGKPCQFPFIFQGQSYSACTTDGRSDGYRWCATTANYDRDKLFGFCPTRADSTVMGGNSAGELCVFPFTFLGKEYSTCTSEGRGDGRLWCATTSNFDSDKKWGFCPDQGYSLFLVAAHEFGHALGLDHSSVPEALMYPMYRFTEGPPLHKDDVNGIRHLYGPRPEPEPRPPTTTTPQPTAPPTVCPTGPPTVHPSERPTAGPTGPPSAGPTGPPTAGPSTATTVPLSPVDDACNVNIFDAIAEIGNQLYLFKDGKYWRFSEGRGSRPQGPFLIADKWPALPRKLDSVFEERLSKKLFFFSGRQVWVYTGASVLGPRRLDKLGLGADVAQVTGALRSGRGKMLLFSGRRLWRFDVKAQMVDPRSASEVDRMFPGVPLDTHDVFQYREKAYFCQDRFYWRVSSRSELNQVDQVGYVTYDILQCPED
Another assay deals with T1, MMP-2 (Homo sapiens, UniProt P08253).
T1 sequence (P08253 110-660): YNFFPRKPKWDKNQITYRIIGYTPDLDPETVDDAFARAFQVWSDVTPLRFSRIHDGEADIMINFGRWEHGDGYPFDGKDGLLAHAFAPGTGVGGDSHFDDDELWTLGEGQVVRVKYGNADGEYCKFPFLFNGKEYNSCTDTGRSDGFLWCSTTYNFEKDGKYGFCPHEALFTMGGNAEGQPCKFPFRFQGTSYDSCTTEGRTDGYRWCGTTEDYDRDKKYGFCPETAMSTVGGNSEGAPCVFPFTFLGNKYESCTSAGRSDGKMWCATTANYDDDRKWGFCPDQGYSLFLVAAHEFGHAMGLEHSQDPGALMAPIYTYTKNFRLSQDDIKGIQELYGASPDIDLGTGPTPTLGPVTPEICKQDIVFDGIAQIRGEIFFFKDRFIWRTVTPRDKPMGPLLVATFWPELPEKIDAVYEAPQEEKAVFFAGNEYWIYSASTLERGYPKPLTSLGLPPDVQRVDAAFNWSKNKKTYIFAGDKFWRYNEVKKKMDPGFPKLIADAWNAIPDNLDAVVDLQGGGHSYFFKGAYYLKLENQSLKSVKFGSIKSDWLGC
The settings on record: cited from earlier work.

The next assay has as its system MS. Conditions: in vivo; cited from earlier work.

In the case of `C[C@@H]1C[C@H]2[C@@H]3CCC4=CC(=O)C=C[C@]4(C)[C@@]3(F)[C@@H](O)C[C@]2(C)[C@@]1(O)C(=O)CO` [Dexamethasone], in assay [1], the “mean body weight loss during the study” value is reported as 10% and the “mean body weight lost at study termination” value is listed as 2%.
On to glatiramer acetate, for which the “progression of disability and the disease” value with primary progressive MS was “failed to halt the progression of disability and the disease”.
For the molecule `O=S(=O)(CCCC(S)CS)c1ccc(Oc2ccccc2)cc1` (centres unmarked) [compound 2, 5-(4-phenoxyphenylsulfonyl)pentane-1,2-dithiol], on MMP-9, the “binding and inhibition of MMP-9” value is “bind selectively and inhibit potently”. Also, the “binding and inhibition of MMP-2” value at MMP-2 was “bind selectively and inhibit potently”.
With `O=S(=O)(CCC(S)CS)c1ccc(Oc2ccccc2)cc1` (centres unmarked) [compound 1, 4-(4-phenoxyphenylsulfonyl)butane-1,2-dithiol], the “binding and inhibition of MMP-9” value on MMP-9 is “bind selectively and inhibit potently”. Also, the “binding and inhibition of MMP-2” value on MMP-2 is “bind selectively and inhibit potently”.
interferon-β: in the assay with MS, the “effectiveness in reducing the rate of MS episodes” value is given as 18-38%.
